Data set [1] has as its system MCF7 (breast) cancer cells. The data set can be described thus: SRB cytotoxicity assay, MCF7. The settings on record: Homo sapiens, MCF7, 72 h, maximum tested concentration 50 µM, read-out: IC50 ± SEM, MCF7. The data set is classed as cell-based, human. As to the method: (§1) MCF7 (breast) or N87 (stomach) cancer cells were grown in Roswell Park Memorial Institute-1640 (RPMI-1640) medium (Thermo Fisher Scientific, Inc; Waltham, MA, USA), supplemented with 10% heat inactivated fetal bovine serum (FBS), 50 units/mL of penicillin and […] of streptomycin and maintained at 37°C in a humidified atmosphere containing 5% CO2. The cells were maintained as “monolayer culture” by serial subculturing.
(§2) Cytotoxicity was determined using Sulforhodamine B (SRB) method as previously described by Skehan et al. ([66]). Exponentially growing MCF7 and N87 cells were collected using 0.25% Trypsin-EDTA and were then seeded in 96-well plates at a density of 1000-2000 cells/well in 10% FBS and penicillin/streptomycin supplemented RPMI-1640 medium. After 24 h, cells were treated with different concentrations of test compounds and incubated for 72 h at 37°C in a humidified atmosphere containing 5% CO2. Next, the cells were fixed by adding trichloroacetic acid (TCA, 10% final conc. in wells) directly to the wells and incubated for 1 h at 4°C, then cells were washed with distilled water 5 times to remove excess TCA, media, serum proteins, and metabolites, followed by air drying. After that, the fixed cells were stained with 0.4% SRB dissolved in 1% acetic acid for 10 min at room temperature, and excess stain was removed by quickly rinsing with 1% acetic acid. The residual acetic acid was removed completely by air drying the plates for 24 h, and the dye was solubilized with Tris buffer (pH= 7.4, 10 mM) for 5 min on a shaker at 1600 rpm. The optical density (OD) of each well was measured spectrophotometrically at 564 nm with an ELISA microplate reader (ChroMate-4300, FL, USA). The IC50 values (concentration of drug resulting in 50% reduction in cell survival) were calculated according to the equation for Boltzman sigmoidal concentration–response curve using the nonlinear regression fitting models (Graph Pad, Prism Version 5).
Background: In SRB staining, fixed cells bind dye roughly in proportion to their protein.

The test system of data set [2] is HCT116 cell line. The data set is described as follows: MTT anti-proliferative assay, HCT116. The settings on record: Homo sapiens, HCT-116, 72 h, maximum tested concentration 50 µM, read-out: IC50 ± SEM, HCT116. The data set is classed as cell-based, human. Here is the method: The test compounds were evaluated for anti-proliferative activity using the MTT viability assay against HCT116 cell line. Cells were seeded in triplicate in 96-well plates at a density of 10x 10^3 cells/mL in a total volume of 200 µL per well. 0.1% of DMSO was used as a vehicle control. Each well was treated with 2 µL test compounds, which had been pre-prepared as stock solutions in […] to furnish the concentration range of study, 0.1 µM to 50 µM, and re-incubated for a further 72 h at 37°C in a humidified atmosphere containing 5% CO2. The culture medium was then removed, and the cells were washed with 100 µL PBS and 100 µL MTT was added, to reach a final concentration of 1 mg/mL MTT. Cells were incubated for 3 h in darkness at 37°C. After that, MTT solution was removed and MTT was solubilized by adding […] DMSO. The cells were maintained at room temperature in darkness for 20 min to ensure thorough color diffusion before reading the absorbance using a microplate reader at 570 nm. All experiments were conducted in triplicates. Results were expressed as percentage viability relative to vehicle control (100%). Dose response curves were plotted and IC50 values (concentration of drug resulting in 50% reduction in cell survival) were obtained using the commercial software package Prism (GraphPad Software, Inc., La Jolla, CA, USA).

The test system of data set [3] is N87 (stomach) cancer cells. The data set can be described thus: SRB cytotoxicity assay, N87. The data set is classed as cell-based. As to conditions: Homo sapiens, 72 h, maximum tested concentration 50 µM, read-out: IC50 ± SEM, N87. As to the method: as §1, §2
Data set [4] has as its system MV4-11 leukemia cell line. The data set is described as follows: CellTiter-Blue cell viability assay, MV4-11. The data set is classed as cell-based. As to conditions: Homo sapiens, CellTiter-Blue, 48 h, maximum tested concentration 20 µM, read-out: IC50 ± SEM, MV4-11. Here is the method:
(§3) HL60, K562, MV4-11 and NB4 were purchased from CLS Cell Line Service GmbH (Eppelheim, Germany). All cell lines were cultured in RPMI-1640 medium supplemented with 10% fetal bovine serum (FBS) (Thermo Fisher Scientific) and 0.1% ciprofloxacin (2.5mg/ml; Cipla Limited; Mumbai, India), and were maintained at 37°C in the presence of 21% O2 and 5% CO2.
(§4) Cell viability was determined using the CellTiter®-Blue Cell Viability Assay kit (Promega, Madison, WI, USA). Approximately 10^4 cells were counted and plated in a 96-well plate in the presence of test compounds ranging from 0.01 to 10 or 20 µM in triplicate and were incubated for 48 h at 37°C in a humidified incubator. After the incubation period was complete, 20 µL of CellTiter®-Blue Cell Viability Assay reagent was added to each well and incubated for additional 2 h for the development of florescence. Florescence was measured at Ex/Em 540/590 on SpectraMax® i3 Multi-Mode microplate reader (Molecular Devices, LLC; San Jose, CA, USA) and plotted against drug concentration to determine the IC50 of the test compounds. The IC50 was obtained by non-linear regression model using GraphPad Prism 6.07 (GraphPad Software, Inc, USA).
A general note: Resazurin is reduced to fluorescent resorufin, in cell work by metabolically active cells.

The subject of data set [5] is K562 leukemia cell line. The data set can be described thus: CellTiter-Blue cell viability assay, K562. In kind it is cell-based. As to conditions: Homo sapiens, CellTiter-Blue, 48 h, maximum tested concentration 20 µM, read-out: IC50 ± SEM, K562. As to the method: as §3, §4
Data set [6] concerns HL60 leukemia cell line. The data set can be described thus: CellTiter-Blue cell viability assay, HL60. The data set is classed as cell-based. As to conditions: Homo sapiens, HL-60; CellTiter-Blue, 48 h; maximum tested concentration 20 µM; read-out: IC50 ± SEM, HL60. Here is the method: as §3, §4
Data set [7] concerns HT-29 colon cancer cell line. More on the design: method as in PMID 29617135. As to conditions: read-out: GI50, HT29 (Colon Cancer); cited from earlier work.

Bounds are passed on as bounds.

In general, IC50 refers to the concentration at which inhibition is half-maximal. Broadly, the melting point is the temperature of the solid-liquid transition. A word on the GI50: it is the concentration that inhibits growth by half.

As to `CCC(=O)Nc1ccc(CC(=O)NCc2ccccc2)cc1` [Compound 4b, N-(4-(2-(benzylamino)-2-oxoethyl)phenyl)propionamide], the melting point came out at 210 °C. Moreover, the IC50 in data set [1] stood at 27.7 ± 9.38 µM. Further, the concentration for half-maximal inhibition (IC50) in data set [2] was above 50 µM. Also, the IC50 in data set [3] came to 32 ± 6.34 µM. Further, in data set [4], the IC50 was above 20 µM. Besides, the concentration for half-maximal inhibition (IC50) in data set [5] is above 20 µM. For the same compound, in data set [6], the IC50 is above 20 µM.

`O=C(Cc1ccc(NC(=O)c2ccccc2)cc1)NCc1ccccc1` [Compound 4c, N-(4-(2-(benzylamino)-2-oxoethyl)phenyl)benzamide] gave a melting point of 212 °C. Besides, the 50% inhibitory concentration (IC50) in data set [1] turned out to be 5.11 ± 3.03 µM. Moreover, in data set [2], the IC50 turned out to be 19.7 ± 4.79 µM. Further, the 50% inhibitory concentration (IC50) in data set [3] was above 50 µM. The IC50 in data set [4] came out at 11.9 ± 0.96 µM. Moreover, in data set [5], the IC50 was above 20 µM. For the same compound, in data set [6], the IC50 turned out to be 5.27 ± 1.94 µM.

Compound `O=C(Cc1ccc(NC(=O)c2cccc(F)c2)cc1)NCc1ccccc1` [Compound 4d, N-(4-(2-(benzylamino)-2-oxoethyl)phenyl)-3-fluorobenzamide] had a melting point of 214 °C. In addition, the IC50 in data set [1] is 6.55 ± 1.34 µM. In data set [2], the IC50 came out at 19 ± 4.18 µM. The IC50 in data set [3] was above 50 µM. Further, the IC50 in data set [4] is 3.2 ± 0.09 µM. In addition, the IC50 in data set [5] was 2.68 ± 0.03 µM. In addition, in data set [6], the IC50 was found to be 2.96 ± 0.25 µM.

As for `O=C(Cc1ccc(-c2ccccc2)cc1)NCc1cccc(F)c1` [KX1-136], in data set [7], the GI50 was 0.877 µM.

These data come from publication PMC9166630, “SAR Probing of KX2-391 Provided Analogues With Juxtaposed Activity Profile Against Major Oncogenic Kinases” (Frontiers in Oncology, 2022).
